Experimental findings from the Kinase Knowledgebase extract (Sharma et al. 2016) are described below.

A value given as a limit tells only on which side of the number the result lay.

The test deals with MAPK14 (human) (UniProt Q16539). The experiment in a line: Inhibition of MAPK14 Kinase Activity.
MAPK14 (human), sequence (Q16539 whole entry, looked up): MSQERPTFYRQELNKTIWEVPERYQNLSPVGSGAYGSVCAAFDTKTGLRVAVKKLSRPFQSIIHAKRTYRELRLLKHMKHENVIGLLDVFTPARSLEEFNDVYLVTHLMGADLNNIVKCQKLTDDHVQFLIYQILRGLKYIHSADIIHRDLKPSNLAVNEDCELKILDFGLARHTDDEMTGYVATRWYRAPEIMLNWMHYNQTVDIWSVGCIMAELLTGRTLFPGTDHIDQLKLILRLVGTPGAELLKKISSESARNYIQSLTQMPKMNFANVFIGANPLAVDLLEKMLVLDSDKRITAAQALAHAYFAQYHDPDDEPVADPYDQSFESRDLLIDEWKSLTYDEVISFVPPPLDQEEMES
A word on the IC50: it is the point on the concentration scale where inhibition reaches its midpoint. Read a high IC50 as lower potency. Turning to `CC(C)Cn1c(N)nc2ccc(-c3[nH]c(-c4c(F)cccc4Cl)nc3-c3ccccc3)cc21`, the 50% inhibitory concentration (IC50) is at most 5 µM.

`CC(C)(C)Cn1c(N)nc2ccc(-c3[nH]c(-c4c(F)cccc4F)nc3-c3ccccc3)cc21` showed an IC50 of at most 5 µM.

`CC(C)(C)Cn1c(N)nc2ccc(-c3[nH]c(C(C)(C)C)nc3-c3ccccc3)cc21`: the IC50 is at most 5 µM.

As for `CC(C)Cn1c(N)nc2ccc(-c3cn(C)nc3-c3ccccc3)cc21`, the IC50 was at most 5 µM.

`CC(C)Cn1c(N)nc2ccc(-c3[nH]c(C(C)(C)C)nc3-c3ccccc3)cc21` returned an IC50 of at most 5 µM.

For the compound `CCn1c(N)nc2ccc(-c3[nH]c(-c4c(F)cccc4F)nc3-c3ccccc3)cc21`, the IC50 was at most 5 µM.

`CC(C)n1cnc2ccc(-c3[nH]c(-c4c(F)cccc4F)nc3-c3ccccc3)cc21` displayed a 50% inhibitory concentration (IC50) of at most 5 µM.

Compound `CC(C)Cn1c(N)nc2ccc(-c3cn(C(C)C)nc3-c3ccccc3)cc21` came in with an IC50 of at most 5 µM.

`CC(C)Cn1c(N)nc2ccc(-c3nc(-c4c(C(F)(F)F)cccc4C(F)(F)F)[nH]c3-c3ccccc3)cc21` yielded a concentration for half-maximal inhibition (IC50) of at most 5 µM.

`CC(C)Cn1c(N)nc2cc(-c3[nH]c(-c4c(F)cccc4Cl)nc3-c3ccccc3)ccc21` came in with an IC50 of at most 5 µM.

The compound `CC(C)Cn1c(N)nc2ccc(-c3cn(C(C)(C)C)nc3-c3ccccc3)cc21` displayed an IC50 of at most 5 µM.

As to `CC(C)Cn1c(N)nc2ccc(-c3nc(-c4c(Cl)cccc4Cl)[nH]c3-c3ccccc3)cc21`, the concentration for half-maximal inhibition (IC50) was at most 5 µM.

Turning to `CC(C)Cn1c(N)nc2ccc(-c3c(-c4ccccc4)nc4ccccn34)cc21`, the IC50 was at most 5 µM.

`CC(C)Cn1c(N)nc2ccc(-c3[nH]c(-c4ccc(Cl)cc4)nc3-c3ccccc3)cc21`: the half-maximal inhibitory concentration (IC50) was at most 5 µM.

`CCn1cnc2ccc(-c3[nH]c(-c4c(F)cccc4F)nc3-c3ccccc3)cc21` gave an IC50 of at most 5 µM.

The compound `Nc1nc2ccc(-c3nc(-c4c(F)cccc4Cl)[nH]c3-c3ccccc3)cc2n1CC1CC1` returned an IC50 of at most 5 µM.

In turn, `CC(C)Cn1c(N)nc2ccc(-c3[nH]c(C(C)(C)C)nc3-c3ccc(F)cc3F)cc21` came in with an IC50 of at most 5 µM.

For the compound `CC(C)Cn1cnc2ccc(-c3n[nH]nc3-c3ccccc3)cc21`, the half-maximal inhibitory concentration (IC50) was at most 5 µM.

The compound `C[C@@H](n1c(N)nc2ccc(-c3[nH]c(-c4c(F)cccc4F)nc3-c3ccccc3)cc21)C(C)(C)C` displayed a half-maximal inhibitory concentration (IC50) of at most 5 µM.

In turn, `Nc1nc2ccc(-c3[nH]c(-c4c(F)cccc4F)nc3-c3ccccc3)cc2n1C1CCCC1` showed an IC50 of at most 5 µM.

In turn, `Nc1nc2ccc(-c3nc(-c4ccc(F)cc4F)[nH]c3-c3c(F)cccc3C(F)(F)F)cc2n1CC1CC1` yielded a concentration for half-maximal inhibition (IC50) of at most 5 µM.

Turning to `CC(C)Cn1c(N)nc2ccc(-c3cn(C(C)(C)C)nc3-c3ccc(F)cc3)cc21`, the concentration for half-maximal inhibition (IC50) is at most 5 µM.

`CCC(CC)n1c(N)nc2ccc(-c3[nH]c(-c4c(F)cccc4F)nc3-c3ccccc3)cc21` yielded a 50% inhibitory concentration (IC50) of at most 5 µM.

Compound `c1ccc(-c2nc(-c3ccc(OCCN4CCCCC4)cc3)[nH]c2-c2ccc3ncn(CC4CC4)c3c2)cc1` registered an IC50 of at most 5 µM.

In turn, `Fc1cccc(F)c1-c1nc(-c2ccccc2)c(-c2ccc3ncn(CC4CC4)c3c2)[nH]1` displayed an IC50 of at most 5 µM.

Consider `CC(C)(C)Cn1cnc2ccc(-c3[nH]c(-c4c(F)cccc4F)nc3-c3ccccc3)cc21`, for which the IC50 was at most 5 µM.

The compound `CC(C)(C)Cn1c(N)nc2ccc(-c3[nH]c(C(C)(C)C)nc3-c3ccc(F)cc3F)cc21` displayed an IC50 of at most 5 µM.

`CC(C)Cn1c(N)nc2ccc(-c3[nH]c(C4CC4)nc3-c3ccccc3)cc21` came in with an IC50 of at most 5 µM.

Turning to `CC(C)Cn1c(N)nc2ccc(-c3c(-c4ccccc4)ncn3C3CCCCC3)cc21`, the IC50 was at most 5 µM.

`Fc1cccc(F)c1-c1nc(-c2ccccc2)c(-c2ccc3nc[nH]c3c2)[nH]1` yielded an IC50 of at most 5 µM.

In turn, `CC(C)(C)Cn1c(N)nc2ccc(-c3nc(-c4c(Cl)cccc4Cl)[nH]c3-c3ccccc3)cc21` came in with a half-inhibitory concentration (IC50) of at most 5 µM.

As for `CC(C)Cn1c(N)nc2ccc(-c3c[nH]nc3-c3ccccc3)cc21`, the IC50 is at most 5 µM.

On to `CC(C)Cn1c(N)nc2ccc(-c3[nH]c(-c4c(F)cccc4F)nc3-c3ccccc3)cc21`, for which the IC50 is at most 5 µM.

Compound `CC(C)Cn1c(N)nc2ccc(-c3[nH]c(-c4c(F)cc(OCCN5CCCC5)cc4F)nc3-c3ccccc3)cc21` yielded an IC50 of at most 5 µM.

On to `Nc1nc2ccc(-c3nc(-c4c(F)cccc4F)[nH]c3-c3ccc(F)cc3F)cc2n1CC1CC1`, for which the concentration for half-maximal inhibition (IC50) was at most 5 µM.

`Nc1nc2ccc(-c3nc(-c4c(F)cccc4Cl)[nH]c3-c3ccc(F)cc3F)cc2n1CC1CC1`: the half-maximal inhibitory concentration (IC50) is at most 5 µM.

As for `Cc1ccsc1-c1nc(-c2ccc3nc(N)n(CC(C)C)c3c2)c(-c2ccccc2)[nH]1`, the IC50 was at most 5 µM.

With `CC(C)Cn1c(N)nc2ccc(-c3n[nH]nc3-c3ccc(F)cc3)cc21`, the IC50 was at most 5 µM.

`Clc1ccc(-c2nc(-c3ccccc3)c(-c3ccc4ncn(CC5CC5)c4c3)[nH]2)cc1` showed an IC50 of at most 5 µM.

In turn, `Nc1nc2ccc(-c3nc(C4CC4)[nH]c3-c3ccc(F)cc3F)cc2n1CC1CC1` yielded an IC50 of at most 5 µM.

`CC(C)Cn1c(N)nc2ccc(-c3oc(C(C)(C)C)nc3-c3ccc(F)cc3)cc21` yielded an IC50 of at most 5 µM.

The compound `CC(C)Cn1cnc2ccc(-c3[nH]c(-c4c(F)cccc4F)nc3-c3ccccc3)cc21` gave an IC50 of at most 5 µM.

Turning to `CC(C)Cn1c(N)nc2ccc(-c3c(-c4ccc(F)cc4)nc4n3CCC4)cc21`, the IC50 was at most 5 µM.

In the case of `CC(C)Cn1c(N)nc2ccc(-c3[nH]c(C(C)(C)C)nc3-c3ccc(F)cc3)cc21`, the IC50 was at most 5 µM.

`Nc1nc2ccc(-c3[nH]c(-c4c(F)cccc4F)nc3-c3ccccc3)cc2n1CC1CC1` registered a concentration for half-maximal inhibition (IC50) of at most 5 µM.

On to `Nc1nc2ccc(-c3nc(-c4c(F)cccc4C(F)(F)F)[nH]c3-c3ccccc3)cc2n1CC1CC1`, for which the IC50 was at most 5 µM.

In turn, `CC(C)Cn1c(N)nc2ccc(-c3c[nH]nc3-c3ccc(F)cc3F)cc21` displayed an IC50 of at most 5 µM.

The compound `Nc1nc2ccc(-c3[nH]c(-c4c(F)cccc4F)nc3-c3ccccc3)cc2n1CC1CCCCC1` registered an IC50 of at most 5 µM.

As to `Cc1nc(-c2ccccc2)c(-c2ccc3nc(N)n(CC(C)C)c3c2)[nH]1`, the IC50 was at most 5 µM.

Consider `C[C@H](n1c(N)nc2ccc(-c3[nH]c(-c4c(F)cccc4Cl)nc3-c3ccccc3)cc21)C(C)(C)C`, for which the IC50 was at most 5 µM.

`CC(C)Cn1c(N)nc2ccc(-c3c(-c4ccccc4)ncn3C)cc21` yielded an IC50 of at most 5 µM.

In turn, `CC(C)Cn1c(N)nc2ccc(-c3nc(-c4c(Cl)cccc4Cl)[nH]c3-c3ccc(F)cc3)cc21` came in with an IC50 of at most 5 µM.

The compound `CC(C)Cn1c(N)nc2ccc(-c3n[nH]nc3-c3ccccc3)cc21` came in with an IC50 of at most 5 µM.

On to `CC(C)(C)Cn1c(N)nc2ccc(-c3[nH]c(C4CC4)nc3-c3ccc(F)cc3F)cc21`, for which the IC50 was at most 5 µM.

`CC(C)(C)Cn1c(N)nc2ccc(-c3[nH]c(-c4c(F)cccc4C(F)(F)F)nc3-c3ccccc3)cc21` gave an IC50 of at most 5 µM.

Take `CC(C)Cn1c(N)nc2ccc(-c3[nH]c(-c4c(F)cccc4C(F)(F)F)nc3-c3ccc(F)cc3F)cc21`: the half-maximal inhibitory concentration (IC50) is at most 5 µM.

`CC(C)Cn1c(N)nc2ccc(-c3cn(C(C)C)nc3-c3ccc(F)cc3)cc21` displayed an IC50 of at most 5 µM.

With `C[C@@H](n1c(N)nc2ccc(-c3[nH]c(C(C)(C)C)nc3-c3ccccc3)cc21)C(C)(C)C`, the 50% inhibitory concentration (IC50) was at most 5 µM.

For the compound `CC(C)(C)Cn1c(N)nc2ccc(-c3[nH]c(-c4c(F)cccc4Cl)nc3-c3ccccc3)cc21`, the IC50 is at most 5 µM.

For `Nc1nc2ccc(-c3[nH]c(-c4c(F)cccc4F)nc3-c3ccccc3)cc2n1-c1ccccc1`, the IC50 was at most 5 µM.

The compound `Cc1nc(-c2ccc(F)cc2F)c(-c2ccc3nc(N)n(CC(C)C)c3c2)[nH]1` gave an IC50 of at most 5 µM.

As for `CC(C)Cn1c(N)nc2ccc(-c3n[nH]nc3-c3ccc(F)cc3F)cc21`, the 50% inhibitory concentration (IC50) was at most 5 µM.

Turning to `Cc1nc2ccc(-c3cn[nH]c3-c3ccc(F)cc3)cc2n1CC(C)C`, the IC50 was at most 5 µM.

As to `Nc1nc2ccc(-c3nc(-c4c(Cl)cccc4Cl)[nH]c3-c3ccc(F)cc3F)cc2n1CC1CC1`, the IC50 was at most 5 µM.

In turn, `CC(C)Cn1c(N)nc2ccc(-c3oc(C(C)(C)C)nc3-c3ccc(F)cc3F)cc21` gave an IC50 of at most 5 µM.

On to `C[C@H](n1c(N)nc2ccc(-c3[nH]c(-c4c(F)cccc4F)nc3-c3ccccc3)cc21)C(C)(C)C`, for which the IC50 was at most 5 µM.

As to `C[C@H](n1c(N)nc2ccc(-c3[nH]c(C(C)(C)C)nc3-c3ccccc3)cc21)C(C)(C)C`, the IC50 is at most 5 µM.

`Cc1onc(-c2ccccc2)c1-c1ccc2nc(N)n(S(=O)(=O)C(C)C)c2c1` came in with a half-inhibitory concentration (IC50) of at most 5 µM.

For the compound `CC(C)n1cnc2ccc(-c3n[nH]nc3-c3ccccc3)cc21`, the IC50 is at most 5 µM.

The compound `Cc1nc2ccc(-c3c(-c4ccccc4)ncn3C3CCCCC3)cc2n1CC(C)C` displayed an IC50 of at most 5 µM.

Consider `CC(C)Cn1c(N)nc2ccc(-c3[nH]c(-c4c(Cl)cccc4Cl)nc3-c3ccc(F)cc3F)cc21`, for which the concentration for half-maximal inhibition (IC50) is at most 5 µM.

Turning to `CC(C)(C)c1nc(-c2ccc3nc(N)n(CC4CC4)c3c2)c(-c2ccc(F)cc2F)[nH]1`, the IC50 is at most 5 µM.

`Cn1c(N)nc2ccc(-c3[nH]c(-c4c(F)cccc4F)nc3-c3ccccc3)cc21` yielded a 50% inhibitory concentration (IC50) of at most 5 µM.

As to `CC(C)Cn1c(N)nc2ccc(-c3[nH]c(-c4c(F)cccc4C(F)(F)F)nc3-c3ccccc3)cc21`, the half-inhibitory concentration (IC50) was at most 5 µM.

`CC(C)Cn1c(N)nc2ccc(-c3[nH]c(-c4ccc(Cl)cc4)nc3-c3ccc(F)cc3)cc21` gave an IC50 of at most 5 µM.

As for `CC(C)Cn1c(N)nc2ccc(-c3[nH]c(-c4ccccc4C(F)(F)F)nc3-c3ccc(F)cc3)cc21`, the IC50 is at most 5 µM.

In turn, `Cc1nc(-c2ccc(F)cc2F)c(-c2ccc3nc(N)n(C(C)C(C)C)c3c2)[nH]1` (stereo not drawn) showed a concentration for half-maximal inhibition (IC50) of at most 5 µM.

Consider `CC(C)Cn1c(N)nc2ccc(-c3c(-c4ccccc4)nc(C4CCCCC4)n3C)cc21`, for which the concentration for half-maximal inhibition (IC50) was at most 5 µM.

For the compound `CC(C)n1c(N)nc2ccc(-c3[nH]c(-c4c(F)cccc4F)nc3-c3ccccc3)cc21`, the concentration for half-maximal inhibition (IC50) was at most 5 µM.

Take `CC(C)Cn1c(N)nc2ccc(-c3cn(-c4ccccc4F)nc3-c3ccccc3)cc21`: the 50% inhibitory concentration (IC50) was at most 5 µM.

The compound `Cc1nc2ccc(-c3nc(-c4c(F)cccc4F)[nH]c3-c3ccccc3)cc2n1CC(C)C` had an IC50 of at most 5 µM.

With `CC(C)Cn1c(N)nc2ccc(-c3c(-c4ccccc4)nc(C4CC4)n3C)cc21`, the IC50 was at most 5 µM.

Compound `CC(C)Cn1c(N)nc2ccc(-c3cn[nH]c3-c3ccc(F)cc3)cc21` came in with a concentration for half-maximal inhibition (IC50) of at most 5 µM.
